Results on 30 molecules are retold here after patent US7521480B2, “Aryl ureido benzoic acid derivatives and their use” (Neurosearch, priority 2002, dated 2009).

The target of one data set is T1, GluR5 receptor (Homo sapiens, UniProt P39086).
T1 construct: expressed in transfected cells; host or cells: HEK 293
Kind of data set: GluR5 functional assay: inhibition of domoate-induced increase in Cai (FLIPR). The data set is classed as cell-based. To be noted: HEK 293 cells stably expressing GluR5; domoate 2 μM; Fluo-4 FLIPR, 25° C. From the text: (§1) This example describes cell-based assays carried out using human embryonic HEK 293 cells stably expressing GluR5 and GluR6 receptors, respectively, in which assays the inhibition of domoate-induced increase in Cai is used as a measure for glutamate antagonist activity of test substances.
(§2) The intracellular free calcium concentration (Cai) is regulating the majority of metabolic processes in mammalian cells. Elevations of Cai in excitable tissues such as neurones are seen after specific activation of receptor operated calcium channels (e.g. glutamate, receptors), or after depolarisation and opening of voltage operated calcium channels. Some neurotransmitters and neuro-modulator increase Cai by activating G-protein coupled ionophors or by release of Cai from intracellular stores via the second messenger IP3.
(§3) Cai is determined by fluorometric methods in a Fluorescent Image Plate Reader (FLIPR). Calcium-chelating fluorochromes (tetracarboxylic acids) are loaded into the cells as acetoxymethyl esters and subsequently released by an unspecific intracellular esterase. The free acids, which are impermeable to the cell membrane, are maintained in the cell for hours. The fluorescence spectrum (either EXmax, EMmax or both) is changed by the binding of calcium, and the fluorescence is directly proportional to the Cai.
The present method uses the fluorochromes Fluo-3 or Fluo-4 as the calcium-chelator. Fluo-3/Fluo-4 is virtually non-fluorescent without calcium, but the calcium-Fluo-3/Fluo-4 complexes show a bright fluorescence (EMmax=526 nm) after excitation around 500 nm (EXmax=505 nm). This fluorescence spectrum is similar to the spectrum of fluorescein. Since excitation and emission is in the visible light region of the spectrum, standard equipment without quarts optics may be used.
The kainate subtype of ionotropic glutamate receptors exists of two high affinity subunits—KA1 and KA2, and three low affinity subunits—GluR5-7. The ion channel in the GluR5 receptor subtype can be made permeable for calcium by substitution of an arginine (R) to a glutamine (Q) in the pore region. The stably expressed human GluR5 receptors used here are calcium permeable (Q), which makes them ideal for fluorescence measurements. […]
(§4) After the loading period, the loading media is aspirated and the cells are washed twice with 100 μl Na^+ free Ringer (NN: 10 mM HEPES, 140 mM Choline chloride, 5 mM KCl, 1 mM MgCl2, 10 mM CaCl2, pH 7.4) to remove extracellular dye. 100 μl NN is added to each well, and the fluorescence is measured in the FLIPR.
(§5) Cells are pre-incubated for 1.5 min with test compound (50 μl) before addition of domoate (50 μl) to a final concentration of 2 μM when determined on GluR5 and 0.2 μM when determined on GluR6. […]

The target in a further data set is T2, GluR6 receptor (Homo sapiens, UniProt Q13002).
T2 construct: expressed in transfected cells; host or cells: HEK 293
T2 sequence (Q13002 32-908): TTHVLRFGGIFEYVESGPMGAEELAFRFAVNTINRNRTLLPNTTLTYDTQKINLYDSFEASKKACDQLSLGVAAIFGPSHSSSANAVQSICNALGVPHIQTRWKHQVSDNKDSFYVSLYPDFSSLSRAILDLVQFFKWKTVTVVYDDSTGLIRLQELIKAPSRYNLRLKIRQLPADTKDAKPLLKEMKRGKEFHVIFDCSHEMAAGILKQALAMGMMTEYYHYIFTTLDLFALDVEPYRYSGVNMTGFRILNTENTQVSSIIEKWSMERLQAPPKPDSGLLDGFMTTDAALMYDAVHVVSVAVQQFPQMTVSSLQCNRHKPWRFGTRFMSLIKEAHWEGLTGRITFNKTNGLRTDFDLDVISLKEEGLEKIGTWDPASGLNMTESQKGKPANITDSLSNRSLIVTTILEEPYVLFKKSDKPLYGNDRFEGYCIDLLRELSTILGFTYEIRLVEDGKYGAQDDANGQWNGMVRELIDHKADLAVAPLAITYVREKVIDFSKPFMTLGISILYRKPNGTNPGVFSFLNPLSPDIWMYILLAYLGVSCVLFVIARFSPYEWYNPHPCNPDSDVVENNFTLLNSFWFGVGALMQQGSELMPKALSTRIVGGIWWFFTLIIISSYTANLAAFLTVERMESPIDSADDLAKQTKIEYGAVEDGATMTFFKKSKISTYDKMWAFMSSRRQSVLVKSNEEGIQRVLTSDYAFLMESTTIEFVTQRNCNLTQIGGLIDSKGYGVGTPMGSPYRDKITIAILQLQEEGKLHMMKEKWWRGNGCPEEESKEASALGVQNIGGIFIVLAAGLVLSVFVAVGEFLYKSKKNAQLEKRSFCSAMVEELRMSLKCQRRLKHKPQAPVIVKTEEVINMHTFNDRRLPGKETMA
Nature of the data set: GluR6 functional assay: inhibition of domoate-induced increase in Cai (FLIPR). It is filed as cell-based. As to conditions: HEK 293 cells stably expressing GluR6; domoate 0.2 μM; Fluo-4 FLIPR, 25° C.
Source text: as §1, §2, §3
The present method uses the fluorochromes Fluo-3 or Fluo-4 as the calcium-chelator. Fluo-3/Fluo-4 is virtually non-fluorescent without calcium, but the calcium-Fluo-3/Fluo-4 complexes show a bright fluorescence (EMmax=526 nm) after excitation around 500 nm (EXmax=505 nm). This fluorescence spectrum is similar to the spectrum of fluorescein. Since excitation and emission is in the visible light region of the spectrum, standard equipment without quarts optics may be used. […]
as §4, §5
• Temperature: 25° C. • Preincubation: 50 μl test solution at a rate of 30 μl/sec and starting height of 100 μl • […] phase: 50 μl domoate solution (8 μM) at a rate of 35 μl/sec and starting height of 150 μl • Reading intervals: preincubation—10 sec×7 and 3 sec×3 antagonist phase—3 sec×17 and 10 sec×12 […]

T1 sequence (P39086 31-918): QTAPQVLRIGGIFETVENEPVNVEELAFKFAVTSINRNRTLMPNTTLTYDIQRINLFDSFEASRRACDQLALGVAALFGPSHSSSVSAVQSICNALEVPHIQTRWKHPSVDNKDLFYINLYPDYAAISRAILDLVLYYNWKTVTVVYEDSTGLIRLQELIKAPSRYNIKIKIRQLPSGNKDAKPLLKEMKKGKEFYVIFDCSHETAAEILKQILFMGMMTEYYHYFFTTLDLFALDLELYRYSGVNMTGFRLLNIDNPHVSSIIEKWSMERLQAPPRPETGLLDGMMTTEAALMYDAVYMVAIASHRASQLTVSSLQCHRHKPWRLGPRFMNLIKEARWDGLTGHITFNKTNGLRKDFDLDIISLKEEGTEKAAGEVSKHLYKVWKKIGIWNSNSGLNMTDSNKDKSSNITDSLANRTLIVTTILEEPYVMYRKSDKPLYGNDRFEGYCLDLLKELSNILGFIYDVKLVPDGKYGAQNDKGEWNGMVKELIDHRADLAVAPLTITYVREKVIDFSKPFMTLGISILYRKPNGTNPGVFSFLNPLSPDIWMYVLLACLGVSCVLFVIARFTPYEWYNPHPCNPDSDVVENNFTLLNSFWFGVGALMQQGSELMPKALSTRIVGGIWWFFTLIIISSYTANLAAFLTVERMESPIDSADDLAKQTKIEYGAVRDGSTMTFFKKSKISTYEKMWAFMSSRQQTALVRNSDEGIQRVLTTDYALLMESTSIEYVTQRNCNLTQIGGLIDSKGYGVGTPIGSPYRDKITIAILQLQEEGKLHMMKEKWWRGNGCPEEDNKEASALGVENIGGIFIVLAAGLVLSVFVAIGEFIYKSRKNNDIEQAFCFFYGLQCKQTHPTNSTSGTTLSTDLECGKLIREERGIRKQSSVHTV

In the case of `O=C(Nc1ccc2c(c1)-c1ccccc1C2=O)Nc1cc(Cl)ccc1C(=O)O`, the melting point is 260 to 263 °C (dec.). Same read-out and setting: the result for `O=C(Nc1ccc2c(c1)OCO2)Nc1cc(Cl)ccc1C(=O)O` reads 183 to 185 °C. The same measure, in the same setting: the result for `O=C(Nc1ccc2ccccc2c1)Nc1cc(Cl)ccc1-c1nnn[nH]1` reads 167 to 169 °C (dec.); that for `COc1ccccc1NC(=O)Nc1cc(Cl)ccc1C(=O)O`, 181 to 183 °C. Still for that read-out and setting: the result for `O=C(Nc1cccc(-c2ccccc2)c1)Nc1cc(Cl)ccc1C(=O)O` reads 181 to 183 °C; that for `O=C(Nc1ccccc1O)Nc1cc(Cl)ccc1C(=O)O`, 179 to 180 °C (dec.).

Regarding `O=C(Nc1cc2ccccc2[nH]1)Nc1cc(Cl)ccc1S(=O)(=O)O`, the melting point is 277 to 279 °C (dec.).

`O=C(Nc1ccccc1Br)Nc1cc(Cl)ccc1C(=O)O` returned a melting point of 195 to 197 °C.

In turn, `O=C(Nc1cccc(Cl)c1)Nc1cc(Cl)ccc1C(=O)O` [Compound C14, 4-Chloro-2-[3-(3-chloro-phenyl)-ureido]-benzoic acid] showed a melting point of 207 to 209 °C. In addition, at GluR5 receptor, the IC50 stood at 1.3 µM. On GluR6 receptor, this molecule gave an IC50 of 37 µM. For `O=C(Nc1ccc2ccccc2c1)Nc1cc(Cl)ccc1C(=O)O` [Compound E2, 4-Chloro-2-(3-naphtalen-2-yl-ureido)-benzoic acid] the same measures were 176 to 179 °C, 1.2 µM and 70 µM. `O=C(Nc1cc(Cl)ccc1C(=O)O)Nc1ccccc1-c1ccccc1` displayed a melting point of 208 to 209 °C. For `O=C(Nc1ccc(F)cc1)Nc1cc(Cl)ccc1C(=O)O`, the melting point is 194 to 195 °C. On to `O=C(Nc1ccc(I)cc1)Nc1cc(Cl)ccc1C(=O)O`, for which the melting point was 209 to 210 °C (dec.). On the same count and under the same terms, the result for `O=C(Nc1cccc(C(F)(F)F)c1)Nc1cc(Cl)ccc1-c1noc(=O)[nH]1` reads 246 to 248 °C (dec.); that for `O=C(Nc1cc(Cl)ccc1C(=O)O)Nc1ccccc1C(F)(F)F`, 173 to 175 °C; that for `O=C(Nc1ccc(Cl)cc1)Nc1cc(Cl)ccc1C(=O)O`, 205 to 207 °C. On the same count and under the same terms, the result for `O=C(Nc1cccc(Br)c1)Nc1cc(Cl)ccc1-c1noc(=O)[nH]1` reads 210 to 211 °C (dec.). Take `O=C(Nc1ccccn1)Nc1cc(Cl)ccc1C(=O)O`: the melting point was in the range of 222 to 224 °C.

For `O=C(Nc1cccc(O)c1)Nc1cc(Cl)ccc1C(=O)O`, the melting point fell in the range of 209 to 211 °C.

For `COc1ccc(NC(=O)Nc2cc(Cl)ccc2C(=O)O)cc1`, the melting point is 194 to 195 °C. Still for that read-out and setting: the result for `O=C(Nc1cccc(I)c1)Nc1cc(Cl)ccc1C(=O)O` reads 192 to 193 °C. On the same count and under the same terms, the result for `O=C(Nc1cccc(C(F)(F)F)c1)Nc1cc(Cl)ccc1C(=O)O` reads 179 to 182 °C. Regarding `Cc1cc(S(=O)(=O)O)c(NC(=O)Nc2cccc(Br)c2)cc1Cl` [Compound 1a, 2-[3-(3-Bromo-phenyl)-ureido]-4-chloro-5-methyl-benzenesulfonic acid], the results for the IC50 on GluR5 receptor and on GluR6 receptor were 1.1 µM and 32 µM, respectively. Molecule `O=C(Nc1ccccc1)Nc1cc(Cl)ccc1C(=O)O` returned a melting point of 186 to 188 °C. The same measure, in the same setting: the result for `Cc1cc(S(=O)(=O)O)c(NC(=O)Nc2ccc3ccccc3c2)cc1Cl` reads greater than 300 °C; that for `O=C(Nc1ccc(-c2ccccc2)cc1)Nc1cc(Cl)ccc1C(=O)O`, 193 to 194 °C.

Turning to `Cc1cc(S(=O)(=O)O)c(NC(=O)Nc2cc3ccccc3[nH]2)cc1Cl`, the melting point is 284 to 286 °C (dec.). For the molecule “2-[3-(3-Bromo-phenyl)-ureido]-4-chloro-benzenesulfonic acid, triethylammonium salt [Compound A1]”, the results for the IC50 at GluR5 receptor and on GluR6 receptor were 1.5 µM and 10 µM, respectively. Turning to `O=C(Nc1cccs1)Nc1cc(Cl)ccc1C(=O)O`, the melting point was 199 to 200 °C. On the same count and under the same terms, the result for `O=C(Nc1ccc(O)cc1)Nc1cc(Cl)ccc1C(=O)O` reads 212 to 214 °C (dec.).

For orientation: melting point means the temperature, or range, at which the solid turns liquid. As usually defined, the IC50 is the concentration needed to halve the response being measured. A higher IC50 goes with lower potency.
